18 compounds from ChEMBL document CHEMBL4425182, “Trypsin inhibitors for the treatment of pancreatitis” (Bioorg Med Chem Lett, 2016) can be followed below.

For data set [1], the target named is Serine protease 1 (Homo sapiens, UniProt P07477). In words: Inhibition of human PRSS1 assessed as enzymatic cleavage of Benzoyl-GlyPro-Arg'Rh110-gammaGlu-OH by fluorescence analysis.
In data set [2] the target is Prothrombin (Homo sapiens, UniProt P00734). Briefly: Inhibition of human thrombin.
Data set [3] addresses T1, Neutrophil elastase (Homo sapiens, UniProt P08246).
T1 sequence (P08246 whole entry): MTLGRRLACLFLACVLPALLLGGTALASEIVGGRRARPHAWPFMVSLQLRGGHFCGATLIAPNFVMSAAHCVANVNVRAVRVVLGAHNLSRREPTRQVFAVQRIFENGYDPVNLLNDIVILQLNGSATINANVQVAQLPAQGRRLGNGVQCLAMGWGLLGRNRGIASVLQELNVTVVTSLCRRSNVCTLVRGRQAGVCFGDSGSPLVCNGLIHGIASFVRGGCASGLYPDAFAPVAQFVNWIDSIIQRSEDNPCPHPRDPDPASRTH
Briefly: Inhibition of human neutrophil elastase.

Data set [4] has as its target Coagulation factor X (Homo sapiens, UniProt P00742). Briefly: Inhibition of human f10a.
Data set [5] deals with Chymotrypsin (Homo sapiens, UniProt Q99895+P17538+P40313+Q6GPI1). Briefly: Inhibition of human chymotrypsin. In kind it is protein assay.
Data set [6] has as its target Voltage-gated inwardly rectifying potassium channel KCNH2 (Homo sapiens, UniProt Q12809). In words: Displacement of [3H]-dofetilide from human ERG expressed in HEK293 cells measured after 90 mins by scintillation proximity assay. In kind it is cell-based. On the technique in general: Loss of bound radioactivity is the signal in a displacement assay; it reports binding, not function.

A short description of data set [7]: Dissociation constant, pKa of the compound. In kind it is physicochemical.
Data set [8] is described as follows: AUC (0 to 24 hrs) in Sprague-Dawley rat at 1 mg/kg, iv. In kind it is ADME, organism-based. The arrangement: time < 24 hr, dose 1 mg/kg, route intravenous. To be noted: in vivo.
Data set [9] can be described thus: Clearance in Sprague-Dawley rat at 1 mg/kg, iv. In kind it is ADME, organism-based. To be noted: in vivo.
Data set [10] can be described thus: Solubility of the compound at pH 6.8. In kind it is physicochemical. To be noted: buffer.
Data set [11] in a line: Lipophilicity, log P of the compound. In kind it is physicochemical. The settings on record: octanol/water.

As usually defined, the IC50 is the concentration that gives 50% inhibition. In general, pKa refers to the negative logarithm of the acid dissociation constant. As a reminder, the AUC(0-t) is exposure summed from dosing to a finite time, without extrapolation to infinity. Read a high AUC(0-t) as high exposure. The clearance is the rate of elimination divided by the concentration. Low values mean inefficient removal, high ones efficient removal. A word on the solubility: it is the concentration that dissolves in the medium under given conditions. In general, logP refers to the decadic logarithm of the partition coefficient of the neutral form, usually between octanol and water. A high value points to higher lipophilicity.

Sequence of Serine protease 1 (P07477 whole entry): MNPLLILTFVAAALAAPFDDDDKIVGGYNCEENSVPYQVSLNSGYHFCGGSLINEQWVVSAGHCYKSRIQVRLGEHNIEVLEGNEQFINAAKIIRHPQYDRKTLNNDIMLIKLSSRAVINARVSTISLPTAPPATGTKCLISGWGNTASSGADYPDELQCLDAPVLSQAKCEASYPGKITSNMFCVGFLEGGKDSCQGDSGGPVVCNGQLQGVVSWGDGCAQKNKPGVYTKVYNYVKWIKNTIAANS
Sequence of Voltage-gated inwardly rectifying potassium channel KCNH2 (Q12809 whole entry): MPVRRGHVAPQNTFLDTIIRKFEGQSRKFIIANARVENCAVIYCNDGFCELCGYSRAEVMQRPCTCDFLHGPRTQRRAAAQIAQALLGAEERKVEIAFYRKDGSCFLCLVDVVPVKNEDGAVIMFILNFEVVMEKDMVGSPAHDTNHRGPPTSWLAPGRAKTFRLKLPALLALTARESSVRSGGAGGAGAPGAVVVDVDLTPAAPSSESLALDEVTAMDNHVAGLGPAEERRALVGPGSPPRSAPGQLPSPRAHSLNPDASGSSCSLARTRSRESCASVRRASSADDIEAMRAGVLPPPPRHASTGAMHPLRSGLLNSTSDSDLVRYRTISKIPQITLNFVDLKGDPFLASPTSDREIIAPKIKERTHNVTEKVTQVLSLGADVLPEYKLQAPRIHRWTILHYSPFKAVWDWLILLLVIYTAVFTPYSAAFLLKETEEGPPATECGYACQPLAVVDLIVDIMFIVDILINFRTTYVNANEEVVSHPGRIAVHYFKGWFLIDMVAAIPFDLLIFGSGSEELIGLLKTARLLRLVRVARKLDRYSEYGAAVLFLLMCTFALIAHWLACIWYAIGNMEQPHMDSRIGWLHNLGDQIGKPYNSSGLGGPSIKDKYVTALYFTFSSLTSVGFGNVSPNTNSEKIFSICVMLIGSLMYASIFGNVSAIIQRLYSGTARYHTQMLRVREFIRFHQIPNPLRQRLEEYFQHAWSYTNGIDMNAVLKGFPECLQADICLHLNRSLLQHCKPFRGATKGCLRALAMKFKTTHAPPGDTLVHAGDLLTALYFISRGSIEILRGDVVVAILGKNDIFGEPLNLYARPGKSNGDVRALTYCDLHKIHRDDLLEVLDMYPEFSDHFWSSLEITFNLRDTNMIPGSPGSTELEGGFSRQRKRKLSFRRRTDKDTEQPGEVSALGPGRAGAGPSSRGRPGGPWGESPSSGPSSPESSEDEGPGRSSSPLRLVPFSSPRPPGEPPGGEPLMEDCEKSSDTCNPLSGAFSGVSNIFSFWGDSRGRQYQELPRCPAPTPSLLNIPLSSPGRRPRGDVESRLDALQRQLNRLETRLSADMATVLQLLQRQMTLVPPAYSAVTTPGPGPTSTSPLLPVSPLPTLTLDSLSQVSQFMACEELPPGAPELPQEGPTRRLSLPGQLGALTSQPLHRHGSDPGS
Sequence of Coagulation factor X (P00742 41-179 limits assumed): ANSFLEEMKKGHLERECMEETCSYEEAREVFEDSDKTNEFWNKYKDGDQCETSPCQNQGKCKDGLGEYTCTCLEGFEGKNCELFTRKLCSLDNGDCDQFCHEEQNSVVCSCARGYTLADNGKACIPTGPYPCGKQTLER
Sequence of Coagulation factor X (P00742 235-488 limits assumed): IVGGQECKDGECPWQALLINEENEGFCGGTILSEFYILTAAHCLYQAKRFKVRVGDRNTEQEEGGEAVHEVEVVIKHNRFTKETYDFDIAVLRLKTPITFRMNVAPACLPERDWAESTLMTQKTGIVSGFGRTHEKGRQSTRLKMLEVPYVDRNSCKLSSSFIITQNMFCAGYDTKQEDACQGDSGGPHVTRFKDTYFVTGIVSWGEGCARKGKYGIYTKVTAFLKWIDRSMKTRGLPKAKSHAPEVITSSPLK

As to `COc1cc(C(=O)N2C[C@@H](n3cc(C4CC4)nn3)C[C@H]2C(=O)N[C@H]2CCCC[C@@H]2c2ccccc2)ccc1CN`, the IC50 in data set [1] was 0.019 µM; in data set [2] it was 54 µM; in data set [3], greater than 100 µM; in [4], 72 µM; in data set [5], greater than 100 µM.
As to `CNC(=O)[C@@H]1C[C@H](N2CCc3c(cccc3OCCc3ccccc3)C2)CN1C(=O)c1ccc(CN)c(OC)c1`, the values for the IC50 in data set [1] and in data set [6] were 0.003 µM and 4 µM, respectively.
Consider `NCc1ccc(C(=O)N2C[C@@H](n3cc(C4CC4)nn3)C[C@H]2C(=O)NCC(c2ccccc2)c2ccccc2)cc1F`, for which the IC50 in data set [1] stood at 31 µM. In addition, the pKa in data set [7] turned out to be 6.2.
With `CNC(=O)[C@@H]1C[C@H](N2CCc3c(cccc3OCCC3CC3)C2)CN1C(=O)c1ccc(CN)c(OC)c1`, the results for the half-maximal inhibitory concentration (IC50) in data set [1] and in [6] were 0.002 µM and 11 µM, respectively.
Take `Cc1cc(C(=O)N2C[C@@H](n3cc(C4CC4)nn3)C[C@H]2C(=O)NCC(c2ccccc2)c2ccccc2)ccc1CN`: in [1], the IC50 came to 0.11 µM. In data set [7], this compound displayed a pKa of 8.7.
With `COc1cc(C(=O)N2C[C@@H](n3cc(C4CC4)nn3)C[C@H]2C(=O)NCC(c2ccccc2)c2ccccc2)ccc1CN`, the IC50 in data set [1] is 0.011 to 0.014 µM; in data set [2], 27 µM; in [3], 55 µM; in data set [6], 2.4 µM; in data set [4], 31 µM; in [5] it was 15 µM. This compound returned a pKa in data set [7] of 9.2. The compound further had an AUC(0-t) at 24 h in data set [8] of 1.03 µM·h. This compound also displayed a clearance in data set [9] of 33 mL/min/kg. For the same compound, the solubility in [10] was greater than 1000 µM.
As for `COc1cc(C(=O)N2C[C@@H](n3cc(C4CC4)nn3)C[C@H]2C(=O)NCCc2ccccc2)ccc1CN`, the IC50 in data set [1] worked out at 0.16 µM.
For `COc1cc(C(=O)N2C[C@@H](n3cc(C4CC4)nn3)C[C@H]2C(=O)N[C@@H]2C[C@H]2c2ccccc2)ccc1CN`, the IC50 in [1] is 0.11 µM; in data set [6], 22 µM.
Consider `CNC(=O)[C@@H]1C[C@H](N2CCc3c(ncnc3OCCc3ccccc3)C2)CN1C(=O)c1ccc(CN)c(OC)c1`, for which the IC50 in [1] was 0.005 µM; in data set [6], greater than 30 µM.
For `CNC(=O)[C@@H]1C[C@H](N2CCc3c(cccc3OCCOC)C2)CN1C(=O)c1ccc(CN)c(OC)c1`, the IC50 in [1] is 0.008 µM; in data set [2], greater than 100 µM; in [3], greater than 100 µM; in [6], greater than 30 µM; in [4], greater than 100 µM; in [5] it was greater than 100 µM. The compound further showed an AUC(0-t) at 24 h in data set [8] of 3.88 µM·h. In [9], this compound gave a clearance of 9 mL/min/kg. The same compound returned a solubility in data set [10] greater than 1000 µM.
With `COc1cc(C(=O)N2C[C@@H](n3cc(C4CC4)nn3)C[C@H]2C(=O)N2CC[C@H](c3ccccc3)C2)ccc1CN`, the IC50 in [1] worked out at 0.22 µM; in data set [6], 14 µM.
In the case of `COc1cc(C(=O)N2C[C@@H](n3cc(C4CC4)nn3)C[C@H]2C(=O)N2CC[C@@H](c3ccccc3)C2)ccc1CN`, the IC50 in data set [1] was determined as 0.33 µM.
On to `CNC(=O)[C@@H]1C[C@H](N2CCc3ccccc3C2)CN1C(=O)c1ccc(CN)c(OC)c1`, for which the IC50 was 0.49 µM in data set [1] and greater than 30 µM in [6].
On to `COc1cc(C(=O)N2C[C@@H](n3cc(C4CC4)nn3)C[C@H]2C(=O)N[C@H]2C[C@@H]2c2ccccc2)ccc1CN`, for which, in data set [1], the IC50 is 0.96 µM.
In the case of `CNC(=O)[C@@H]1C[C@H](N2CCc3c(ncnc3OCCC3CC3)C2)CN1C(=O)c1ccc(CN)c(OC)c1`, the IC50 was 0.006 µM in data set [1] and greater than 30 µM in [6].
`CNC(=O)[C@@H]1C[C@H](n2cc(C3CC3)nn2)CN1C(=O)c1ccc(CN)c(OC)c1`: the values for the IC50 in data set [1] and in data set [6] were 2.1 µM and greater than 30 µM, respectively.
As to `CNC(=O)[C@@H]1C[C@H](N2CCc3c(cccc3OC)C2)CN1C(=O)c1ccc(CN)c(OC)c1`, the values for the IC50 in [1] and in data set [6] were 0.1 µM and greater than 30 µM, respectively.
Regarding `NCc1ccc(C(=O)N2C[C@@H](n3cc(C4CC4)nn3)C[C@H]2C(=O)NCC(c2ccccc2)c2ccccc2)cc1`, the IC50 in data set [1] was 0.11 µM; in data set [2] it was 94 µM; in [3], greater than 100 µM; in data set [6], 0.5 µM; in data set [4] it was 71 µM; in [5], greater than 100 µM. The compound also registered a logP in data set [11] of 3. The compound also showed a pKa in [7] of 8.5. This compound showed a solubility in data set [10] greater than 1000 µM.
